Values of other authors as cited in patent US8734864B2, “Methods for increasing human growth hormone levels” (Quality IP Holdings, LLC, priority 2012, dated 2014).

How the values were obtained:
hGH secretion = details: for Increase in hGH (in words): other amino acids, literature
[1] = subcutaneous injection of 0.06 IU, GH deficient subjects

Compound | Increase in hGH (in words) (hGH secretion) | other results
N=C(N)NCCC[C@H](N)C(=O)O [arginine] |  | Elevation of serum hGH levels (hGH secretion; 30 g, males): 8.6 fold; Increase of hGH levels (hGH secretion; intravenous infusion of 183 mg/kg body weight, females): > 20 fold
N[C@@H](Cc1c[nH]cn1)C(=O)O [histidine] | marked increases in hGH | 
NCCCC[C@H](N)C(=O)O [lysine] | marked increases in hGH | 
CSCC[C@H](N)C(=O)O [methionine] | marked increases in hGH | 
NCCC[C@H](N)C(=O)O [ornithine] | marked increases in hGH | 
N[C@@H](Cc1ccccc1)C(=O)O [phenylalanine] | marked increases in hGH | 
HGH: human growth hormone given by subcutaneous injection to GH deficient subjects (literature) |  | Mean levels of GH reached [1]: 0.4 ng/mL
